Where two headings read alike, the source gives them in different places.
Assays:
human cathepsin B [1] = target: T1, human cathepsin B (Homo sapiens, UniProt P07858); test: Cathepsin B inhibition assay (chromogenic substrate Cbz-Arg-Arg-pNA); type: biochemical; settings: for remaining activity at 20 µM: 20 µM inhibitor, duplicate measurements, product formation after 60 min, read-out: r.a. (%), residual enzymatic activity of cathepsin B; for kinact/KI: 1 h; for kinac: calculated from kinac/Ki values and separately obtained Ki values
T1 construct: purchased Calbiochem, Darmstadt, Germany
Method: To get a first insight into the interaction with human cathepsin B, the inhibition of the enzyme‐catalyzed cleavage of a chromogenic peptide substrate was examined. […] Active compounds were subjected to kinetic measurements at five different concentrations (Tables 1 and S1).
Figure 1 Cathepsin B‐catalyzed hydrolysis of 500 µM (= 0.45 K m) of Cbz‐Arg‐Arg‐p‐nitroanilide in the absence (black) or presence of increasing concentrations of carbamate 4 (from top to bottom: 0.4, 0.8, 1.2, 1.6, and 2.0 µM).
1. Enzyme Inhibition Assays and Kinetic Data of Inhibition of Cathepsins B, L, K and S General. Human cathepsins were assayed either fluorimetrically or spectrophotometrically as noted below. The 10 mM inhibitor solutions were prepared in DMSO. The final concentration of DMSO in all assays was 2%. Non-linear regressions were conducted with GraFit 5. Residual cathepsin activity at an inhibitor concentration of 20 µM was determined from duplicate measurements based on the product formation after 60 min. Concentration dependent measurements were performed in duplicate measurements with five different inhibitor concentrations when the residual cathepsin activity in the presence of 20 µM inhibitor was below 70% (cathepsin B) or below 50% (cathepsins cathepsins L, K, and S). Progress curves were monitored for 60 min. First-order rate constants, kobs, were determined by non-linear regression following the equation [P] = vi × (1 – exp(-kobs × t))/kobs + d, where [P] is the product concentration, vi is the initial product formation rate, kobs is the observed first-order rate constant, and d is the offset. Mean values of kobs were plotted versus corresponding inhibitor concentrations [I], and second-order rate constants of inactivation, kinac/Ki, were obtained by linear regression. The equation kobs/[I] = (kinac/Ki)/(1 + [S]/Km) was used, where [S] is the substrate concentration and Km is the Michaelis-Menten constant. Standard errors (SE) refer to the linear regression.
Cathepsin B inhibition assay.[1] Human isolated cathepsin B (Calbiochem, Darmstadt, Germany) was assayed spectrophotometrically on a Cary 50 or 100 Bio, Varian, at 405 nm. The reactions were followed at 37 °C. Assay buffer was 100 mM sodium phosphate buffer pH 6.0, 100 mM NaCl, 5 mM EDTA, 0.01% Brij 35. A stock solution of human cathepsin B of 1.81 mg/mL or 0.47 mg/mL in 20 mM sodium acetate buffer pH 5.0, 1 mM ethylenediaminetetraactic acid (EDTA) was diluted 1:500 with assay buffer containing 5 mM dithiothreitol (DTT) and incubated for 30 min at 37 °C. A 100 mM stock solution of the para-nitroaniline (pNA)-based chromogenic substrate Cbz-Arg-Arg-pNA was prepared in DMSO.
The final concentration of the substrate was 500 μM (= 0.45 Km). Into a cuvette containing 960 μL assay buffer, inhibitor solution and DMSO in a total volume of 15 μL, and 5 μL of the substrate solution were added and mixed. The reaction was initiated by adding 20 μL of the enzyme solution. […]

human cathepsin B [2] = target: T1, human cathepsin B; test: Cathepsin B reactivation experiment; type: biochemical; settings: 30 min incubation with 0.5 µM, spin-filter removal of inhibitor, 200 min
Method: Figure S2. Reactivation experiment of human cathepsin B after incubation with the carbamate inhibitors 7 and 31. Cathepsin B (38 µg/mL) was incubated under assay conditions for 30 min with • DMSO, • 5 µM of compound 7, or • 0.5 µM of compound 31. After removal of assay buffer, DMSO and excessive inhibitor by spin-filter centrifugation, product formation was followed in the presence of Cbz-Arg-Arg-pNA as substrate for 200 min. A negative control (•) containing only substrate and no enzyme was used to measure spontaneous decay of the substrate.
(also on this page, place not known: time (min) 0 60 120 180 absorption 0 0.2 0.4 0.6)
(1 picture or pasted object on this page, not shown here)

[3] = pH 6, five inhibitor concentrations, duplicates, 60 min progress curves, 500 µM Cbz-Arg-Arg-pNA, pH 6.0, 37 °C, read-out: k inac/K i ± SE, second-order rate constant of enzyme inactivation, cathepsin B

Work on `CC(C)CC(OC(=O)Nc1ccc(Cl)cc1)C(=O)N1CCC[C@H]1C(=O)O` (stereo partly drawn) [Compound 17] yielded a remaining activity at 20 µM (human cathepsin B [1]) of 68% and a kinact/KI (human cathepsin B [1]; five inhibitor concentrations, duplicates, 60 min progress curves, 500 µM Cbz-Arg-Arg-pNA, pH 6.0, 37 °C, read-out: k inac/K i ± SE, second-order rate constant of enzyme inactivation, cathepsin B) of 10.6 ± 1.6 M⁻¹ s⁻¹.

For `CC(C)C[C@H](NC(=O)Oc1ccc(Cl)cc1)C(=O)N1CCCC[C@H]1C(=O)O` [Compound 10], the remaining activity at 20 µM (human cathepsin B [1]) was 5% and the kinact/KI (human cathepsin B [1]; [3]) was 933 ± 40 M⁻¹ s⁻¹.

`CC(C)C[C@H](NC(=O)Oc1ccc(-c2ccccc2)c(NC(=O)Cc2ccccc2)c1)C(=O)N1CCC[C@H]1C(=O)O` [Compound 21] gave a remaining activity at 20 µM (human cathepsin B [1]) of at most 2% and a kinact/KI (human cathepsin B [1]; [3]) of 1340 ± 20 M⁻¹ s⁻¹.

Molecule `CC(C)C[C@H](NC(=O)Nc1ccc(Cl)cc1)C(=O)N[C@@H](Cc1ccccc1)C(=O)O` [Compound 18] has a remaining activity at 20 µM (human cathepsin B [1]) of 90%.

In the case of `CC(C)C[C@H](NC(=O)Oc1ccc(Cl)cc1)C(=O)N[C@@H](Cc1ccccc1)C(=O)OC(C)(C)C` [Compound 2], the remaining activity at 20 µM (human cathepsin B [1]) is reported as 92%.

With `CC(C)C[C@H](NC(=O)Oc1ccc(Cl)c(NC(=O)Cc2ccccc2)c1)C(=O)N1CCC[C@H]1C(=O)O` [Compound 20] the remaining activity at 20 µM (human cathepsin B [1]) was at most 2% and the kinact/KI (human cathepsin B [1]; [3]) was 2860 ± 50 M⁻¹ s⁻¹.

`CC(C)CC(NC(=O)Oc1ccc(NC(=O)c2ccc(-c3ccccc3)cc2)c(Cl)c1)C(=O)N1CCCC1C(=O)O` (stereo not drawn) [Compound 25] showed a remaining activity at 20 µM (human cathepsin B [1]) of at most 2% and a kinact/KI (human cathepsin B [1]; [3]) of 3640 ± 60 M⁻¹ s⁻¹.

Molecule `O=C(NC(CC1CCCCC1)C(=O)NC(Cc1ccccc1)C(=O)O)Oc1ccc(Cl)cc1` (stereo not drawn) [Compound 7] has a remaining activity at 20 µM (human cathepsin B [1]) of at most 2%, a kinact/KI (human cathepsin B [1]; [3]) of 2010 ± 110 M⁻¹ s⁻¹ and a kinac (human cathepsin B [1]) of 0.0200 s⁻¹. It also gave a Ki (human cathepsin B [1]; non-linear regression of initial rates vi versus inhibitor concentration, read-out: Ki ± SE) of 9.96 µM.

`CC(C)C[C@H](NC(=O)Oc1ccc(Cl)cc1)C(=O)N[C@@H](Cc1ccccc1)C(=O)O` [Compound 4] gave a remaining activity at 20 µM (human cathepsin B [1]) of at most 2% and a kinact/KI (human cathepsin B [1]; [3]) of 745 ± 5 M⁻¹ s⁻¹.

For `CC(C)CC(NC(=O)Oc1ccccc1)C(=O)NC(Cc1ccccc1)C(=O)O` (stereo not drawn) [Compound 1], the remaining activity at 20 µM (human cathepsin B [1]) was 23% and the kinact/KI (human cathepsin B [1]; [3]) was 157 ± 13 M⁻¹ s⁻¹.

Molecule `COC(=O)C(Cc1ccccc1)NC(=O)C(CC(C)C)NC(=O)Oc1ccc(Cl)cc1` (stereo not drawn) [Compound 3] has a remaining activity at 20 µM (human cathepsin B [1]) of 97%.

`CC(C)C[C@H](NC(=O)Oc1ccc(NC(=O)N(Cc2ccccc2)Cc2ccccc2)c(Br)c1)C(=O)N1CCC[C@H]1C(=O)O` [Compound 26] gave a kinact/KI (human cathepsin B [1]; pH 6, read-out: k inac/K i ± SE, second-order rate constant of enzyme inactivation, cathepsin B) of 2660 ± 80 M⁻¹ s⁻¹.

In the case of `O=C(NC(CC1CCCCC1)C(=O)NC(Cc1ccccc1)C(=O)O)Oc1ccc(NC(=O)C(c2ccccc2)c2ccccc2)c(Cl)c1` (stereo not drawn) [Compound 30], the remaining activity at 20 µM (human cathepsin B [1]) is reported as at most 2%, the kinact/KI (human cathepsin B [1]; [3]) is reported as over 10000 M⁻¹ s⁻¹ and the “k inac/K i ± SE, second-order rate constant of enzyme inactivation, cathepsin B” value (human cathepsin B [1]; five inhibitor concentrations, duplicates, 60 min progress curves, 500 µM Cbz-Arg-Arg-pNA, pH 6.0, 37 °C) is reported as 13,800 M^−1s^−1.

In the case of `O=C(NC(CC1CCCCC1)C(=O)NC(Cc1ccccc1)C(=O)O)Oc1ccc(NC(=O)C(Cc2ccccc2)Cc2ccccc2)c(Cl)c1` (stereo not drawn) [Compound 31], the “reversibility of cathepsin B inhibition” value (human cathepsin B [2]) is reported as “irreversible”, the remaining activity at 20 µM (human cathepsin B [1]) is reported as at most 2% and the “fold lower K i value in comparison with 7” value (human cathepsin B [1]; 31 versus 7) is reported as “more than 20 fold”. It also gave a kinact/KI (human cathepsin B [1]; [3]) of 23600 ± 1900 M⁻¹ s⁻¹, a kinac (human cathepsin B [1]) of 0.0104 s⁻¹ and a Ki (human cathepsin B [1]; non-covalent enzyme-inhibitor complex, read-out: K i value) of 0.441 µM.

`CC(C)CC(CNC(=O)Oc1ccc(Cl)cc1)C(=O)N[C@H](Cc1ccccc1)C(=O)O` (stereo partly drawn) [Compound 5] showed a remaining activity at 20 µM (human cathepsin B [1]) of 11% and a kinact/KI (human cathepsin B [1]; [3]) of 108 ± 5 M⁻¹ s⁻¹.

With `CC(C)C[C@H](NC(=O)Oc1ccc(NC(=O)Cc2ccccc2)c(Cl)c1)C(=O)N1CCC[C@H]1C(=O)O` [Compound 24] the remaining activity at 20 µM (human cathepsin B [1]) was at most 2% and the kinact/KI (human cathepsin B [1]; [3]) was 6530 ± 310 M⁻¹ s⁻¹.

Molecule `CC(C)C[C@H](NC(=O)Nc1ccc(Cl)cc1)C(=O)N1CCC[C@H]1C(=O)O` [Compound 19] has a remaining activity at 20 µM (human cathepsin B [1]) of 95%.

With `CC(C)CC(CNC(=O)Oc1ccc(Cl)cc1)C(=O)N1CCC[C@@H]1C(=O)O` (stereo partly drawn) [Compound 9] the remaining activity at 20 µM (human cathepsin B [1]) was 53% and the kinact/KI (human cathepsin B [1]; [3]) was 30.3 ± 4.1 M⁻¹ s⁻¹.

`CC(C)CC(OC(=O)Nc1ccc(Cl)cc1)C(=O)N[C@@H](Cc1ccccc1)C(=O)O` (stereo partly drawn) [Compound 16] gave a remaining activity at 20 µM (human cathepsin B [1]) of 91%.

Work on `CC(C)CC(NC(=O)Oc1ccc(NC(=O)C(c2ccccc2)c2ccccc2)c(Cl)c1)C(=O)NC(Cc1ccccc1)C(=O)O` (stereo not drawn) [Compound 29] yielded a remaining activity at 20 µM (human cathepsin B [1]) of at most 2% and a kinact/KI (human cathepsin B [1]; [3]) of 11300 ± 600 M⁻¹ s⁻¹.

`CC(C)C[C@H](NC(=O)Oc1ccc(Cl)cc1)C(=O)N1CCC[C@H]1C(=O)O` [Compound 8] was tested, and the remaining activity at 20 µM (human cathepsin B [1]) was 4% and the kinact/KI (human cathepsin B [1]; [3]) was 711 ± 40 M⁻¹ s⁻¹.

With `CC(C)CC(NC(=O)Oc1ccc(NC(=O)C(c2ccccc2)c2ccccc2)c(Cl)c1)C(=O)N1CCCC1C(=O)O` (stereo not drawn) [Compound 28] the remaining activity at 20 µM (human cathepsin B [1]) was at most 2% and the kinact/KI (human cathepsin B [1]; [3]) was 8180 ± 290 M⁻¹ s⁻¹.

`CC(C)CC(NC(=O)Oc1ccc(NC(=O)C(c2ccccc2)c2ccccc2)c(Br)c1)C(=O)N1CCCC1C(=O)O` (stereo not drawn) [Compound 27] gave a remaining activity at 20 µM (human cathepsin B [1]) of at most 2% and a kinact/KI (human cathepsin B [1]; [3]) of 6000 ± 100 M⁻¹ s⁻¹.

`CC(C)C[C@H](NC(=O)Oc1cccc(Cl)c1)C(=O)N1CCC[C@H]1C(=O)O` [Compound 23] was tested, and the remaining activity at 20 µM (human cathepsin B [1]) was at most 2% and the kinact/KI (human cathepsin B [1]; [3]) was 2760 ± 50 M⁻¹ s⁻¹.

For `CC(C)CC(NC(=O)Oc1ccc(Cl)c(NC(=O)C(c2ccccc2)c2ccccc2)c1)C(=O)N1CCCC1C(=O)O` (stereo not drawn) [Compound 22], the remaining activity at 20 µM (human cathepsin B [1]) was at most 2% and the kinact/KI (human cathepsin B [1]; [3]) was 3830 ± 70 M⁻¹ s⁻¹.
